The results in this text go back to patent US20110110886A1, “SMALL MOLECULE INHIBITORS OF AUTOTAXIN AND METHODS OF USE” (Yale University, priority 2008, published 2011).

The structures appear in SMILES notation.

This experiment deals with T1, ATX lyso-PLD activity (Homo sapiens, UniProt Q13822).
T1 construct: consistent with a mature, glycosylated form of the enzyme; TEV cleavage site (C); 9-His (C); 6-His (C); made in house; host or cells: High Five insect cells (baculovirus, p-DEST-8)
Kind of experiment: Time course assay of ATX lyso-PLD activity (FS-3 fluorescent product) with or without 10 μM compound over 30 minutes. It is filed as biochemical. Particulars: 10 μM inhibitor, 30 minute interval, 300 nM ATX. Here is the method: C. Structure of hexachlorophene, merbromin. Bithionol and their analogs -2,2′-Methylenebis(4-chlorophenol), Eosin Y and RJC 03297, respectively. D. Structure of NSC 48300 and its analogs. […] The assay conditions are 300 nM ATX in the presence or absence of 10 μM compound over 30 minutes.
Inhibitor screen: High throughput screens were performed against two libraries: the GenPlus library of 960 compounds (NINDS Custom Collection, MicroSource Discovery systems) and the NCI Diversity Set (1990 compounds, see http://dtp.nci.nih.gov/branches/dscb/repo_open.html). The screens were performed at the Yale Center for Chemical Genomics utilizing a Tecan Aquarius robot in combination with an Aquarius liquid handler and a Freedom EVO Workstation. A V&P Scientific 384 pin tool transferred small molecules (10 mM stock) from library plates into the optically clear, 384 well assay plates, and an Aquarius liquid handling robot transferred protein into the individual wells. The assays were performed in a total volume of 50 μL in assay buffer (50 mM Tris, 140 mM NaCl, 1 mM MgCl2, and 5 mM CaCl2, pH 8.0). Absorbance of p-nitrophenylate, the product of ATX's PDE activity with pNP-TMP (discussed below) was measured at 405 nm over a period of 12 hours. To monitor lysophospholipase-D activity, the fluorescence of FS-3 (625 nM or 4 μM) was monitored (λex=480 nm, λem=535 nm) in assay buffer over a period of 30 minutes in the presence of 300 nM ATX and 10 μM compound. The assay was evaluated using a statistical Z′ analysis, a quantitative measure to determine assay robustness for single point analysis on a high throughput screening platform. The Z′ analysis was performed from 32 maximum control values (c+) and 32 minimum controls (c−) on each plate. Assays consistently performed with Z′ factors of 0.75-0.85, higher than the minimum 0.5 considered robust.
Inhibition of ATX lyso-PLD activity by several NSC48300 analogs was qualitatively compared in a time course assay by measuring the production of fluorescent product in the presence or absence of 10 µM inhibitor over a 30 minute interval.

In the case of `O=[As](O)(O)c1ccc(Cc2ccc([As](=O)(O)O)cc2)cc1` [NSC 48300], the “less product formation when compared to the enzyme alone” value stood at 98.0%.
